Structures are written as SMILES. pKi: −log10 of the molar value. Bounds are passed on as bounds.

Data on one compound can be found in ChEMBL document CHEMBL1133517, “Design, radiosynthesis, and biodistribution of a new potent and selective ligand for in vivo imaging of the adenosine A(2A) receptor system using positron emission tomography” (J Med Chem, 2000).

One assay addresses T1, Adenosine receptor A2b (Homo sapiens, UniProt P29275).
T1 sequence (P29275 whole entry): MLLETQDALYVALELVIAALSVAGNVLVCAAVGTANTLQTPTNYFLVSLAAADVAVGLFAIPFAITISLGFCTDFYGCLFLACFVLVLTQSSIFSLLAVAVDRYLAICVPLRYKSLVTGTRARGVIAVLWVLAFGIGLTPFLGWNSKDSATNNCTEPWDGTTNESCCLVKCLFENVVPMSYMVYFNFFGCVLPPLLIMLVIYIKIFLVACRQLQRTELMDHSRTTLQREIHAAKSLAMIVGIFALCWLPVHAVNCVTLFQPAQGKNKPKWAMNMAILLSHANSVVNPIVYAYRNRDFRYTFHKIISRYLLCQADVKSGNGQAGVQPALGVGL
As to the kind of experiment: Inhibitory activity against human adenosine A2B receptor expressed in HEK293 cells by displacement of [3H]DPCPX. It counts as cell-based.

For assay [1], the target named is T2, Adenosine receptor A1 (Rattus norvegicus, UniProt P25099).
T2 sequence (P25099 whole entry): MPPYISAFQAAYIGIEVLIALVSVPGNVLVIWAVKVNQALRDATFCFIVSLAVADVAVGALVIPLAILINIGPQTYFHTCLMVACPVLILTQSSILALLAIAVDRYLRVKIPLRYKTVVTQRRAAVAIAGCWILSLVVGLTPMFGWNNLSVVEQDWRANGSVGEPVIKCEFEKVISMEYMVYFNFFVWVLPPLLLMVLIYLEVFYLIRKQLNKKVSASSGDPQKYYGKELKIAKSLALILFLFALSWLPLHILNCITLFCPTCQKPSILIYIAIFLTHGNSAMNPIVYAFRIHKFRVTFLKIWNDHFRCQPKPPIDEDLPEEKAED
The assay can be described thus: Displacement of [3H]DPCPX from adenosine A1 receptor in rat brain membranes. It counts as cell membranes. In general terms: Displacement assays read how much labelled ligand stays bound in the presence of the test substance.

The target of assay [2] is T3, Adenosine receptor A1 (Homo sapiens, UniProt P30542).
T3 sequence (P30542 whole entry): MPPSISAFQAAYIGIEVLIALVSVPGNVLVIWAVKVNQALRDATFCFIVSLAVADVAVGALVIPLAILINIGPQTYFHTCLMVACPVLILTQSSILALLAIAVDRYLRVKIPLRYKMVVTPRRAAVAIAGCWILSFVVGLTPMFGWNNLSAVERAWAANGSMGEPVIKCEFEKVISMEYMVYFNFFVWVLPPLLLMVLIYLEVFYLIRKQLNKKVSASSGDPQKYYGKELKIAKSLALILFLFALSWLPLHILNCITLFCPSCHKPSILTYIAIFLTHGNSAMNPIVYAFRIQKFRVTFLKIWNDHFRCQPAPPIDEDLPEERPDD
As to the kind of experiment: Inhibitory activity against human adenosine A1 receptor expressed in CHO cells by displacement of [3H]DPCPX. The format is cell-based.

Assay [3] addresses T4, Adenosine receptor A3 (Rattus norvegicus, UniProt P28647).
T4 sequence (P28647 whole entry): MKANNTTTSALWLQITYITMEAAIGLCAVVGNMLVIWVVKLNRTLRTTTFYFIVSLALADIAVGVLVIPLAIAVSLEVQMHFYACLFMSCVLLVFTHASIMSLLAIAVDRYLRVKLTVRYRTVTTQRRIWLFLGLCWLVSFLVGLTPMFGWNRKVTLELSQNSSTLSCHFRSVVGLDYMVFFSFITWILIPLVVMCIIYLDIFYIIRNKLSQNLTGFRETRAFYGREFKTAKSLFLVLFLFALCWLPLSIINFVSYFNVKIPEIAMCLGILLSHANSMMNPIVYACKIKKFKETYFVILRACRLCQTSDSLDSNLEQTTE
The assay can be described thus: Inhibitory activity against rat adenosine A3 receptor expressed in HEK293 cells by displacement of [125I]AB-MECA. It counts as cell-based.

Assay [4] has as its target T5, Adenosine receptor A3 (Homo sapiens, UniProt P0DMS8).
T5 sequence (P0DMS8 whole entry): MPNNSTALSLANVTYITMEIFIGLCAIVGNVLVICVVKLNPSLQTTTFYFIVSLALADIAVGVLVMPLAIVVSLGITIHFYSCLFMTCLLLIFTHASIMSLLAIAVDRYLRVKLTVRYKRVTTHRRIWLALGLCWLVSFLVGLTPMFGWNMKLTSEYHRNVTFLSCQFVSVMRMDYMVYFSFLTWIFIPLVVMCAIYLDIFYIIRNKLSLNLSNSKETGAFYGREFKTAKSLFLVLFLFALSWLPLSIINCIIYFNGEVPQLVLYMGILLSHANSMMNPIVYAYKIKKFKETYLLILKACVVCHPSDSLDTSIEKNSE
The assay can be described thus: Displacement of [125I]AB-MECA from human adenosine A3 receptor expressed in HEK293 cells. It counts as cell-based.

Usually pKi stands for the Ki on a negative log10 scale, so that one unit is a factor of ten. High values mean a low Ki, low ones a high Ki. With `COc1ccc(CCCn2ncc3c2nc(N)n2nc(-c4ccco4)nc32)cc1`, the negative-log Ki (pKi) is less than 5.00 at Adenosine receptor A2b; 5.74 on Adenosine receptor A1 [1]; 5.95 at Adenosine receptor A1 [2]; less than 5.00 at Adenosine receptor A3 [3]; less than 5.00 at Adenosine receptor A3 [4].
